According to patent publication US10294234B2, “HIV inhibitor compounds” (priority 2017, dated 2019):
pEC50: −log10 of the molar value. Where two headings read alike, the source gives them in different places.

What was measured:
[1] = Procedure, shortened: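 Compounds at 1 uM were incubated in duplicate with dog, rat or human liver microsomes (0.5 mg/mL protein) and an NADPH-regenerating system, sampled at 2, 12, 25, 45 and 65 minutes. Remaining parent was measured by LC/MS/MS, and Clint was calculated from the in vitro t1/2.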
[2] = test system: HIV-1 (IIIB) in MT-4 cells; assay: MT-4 HIV assay; format: cell-based; settings: Human immunodeficiency virus 1, MT4, 120 h
Procedure, shortened: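 MT-4 cells infected with HIV-1 IIIB (1:250 stock dilution) were incubated with 1:3 serially diluted compounds in RPMI with 10% FBS for 5 days at 37 °C. Cell Titer Glo luminescence was the readout. Plates included mock-infected wells, no-drug wells and 5 uM AZT controls.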

[3] = HIV-1 (IIIB), MT-4 cells, 5 days, Cell Titer Glo, read-out: EC50
[4] = human liver microsomes 0.5 mg/mL, 1 uM compound, NADPH
[5] = rat liver microsomes 0.5 mg/mL, 1 uM compound, NADPH

Row | SMILES | Human Pred Cl. ([1]; human, microsomes) [L/H/kg] | Rat. Pred. Cl. ([1]; rat, microsomes) [L/H/kg] | pEC50 [2, 3] | Human Pred Cl. [1, 4] [L/H/kg] | pEC50 [2] | Rat. Pred. Cl. [1, 5] [L/H/kg]
1 | COC(=O)N[C@H](C(=O)N[C@@H](Cc1ccc(C#Cc2ccc(N3CC4CCC(C3)N4C3COC3)nc2)cc1)[C@@H](O)CN(Cc1c(F)cc(-c2ccc(F)cn2)cc1F)NC(=O)[C@@H](NC(=O)OC)C(C)(C)C(F)(F)F)C(C)(C)C(F)(F)F [Example 102, Methyl ((5S,8S,9S,14S)-11-(2,6-difluoro-4-(5-fluoropyridin-2-yl)benzyl)-16,16,16-trifluoro-9-hydroxy-15,15-dimethyl-8-(4-((6-(8-(oxetan-3-yl)-3,8-diazabicyclo [3.2.1]octan-3-yl)pyridin-3-yl)ethynyl)benzyl)-3,6,13-trioxo-5-(1,1,1-trifluoro-2-methylpropan-2-yl)-2-oxa-4,7,11,12-tetraazahexadecan-14-yl)carbamate] | 0.18 | <0.18 | 8.25 |  |  | 
2 | COC(=O)N[C@H](C(=O)N[C@@H](Cc1ccc(C#Cc2ccc(N3CC4CCC(C3)N4C(=O)[C@@H]3CCCO3)nc2)cc1)[C@@H](O)CN(Cc1c(F)cc(-c2cnn(C(F)F)c2)cc1F)NC(=O)[C@@H](NC(=O)OC)C(C)(C)C(F)(F)F)C(C)(C)C(F)(F)F [Example 18, Methyl ((5S,8S,9S,14S)-11-(4-(1-(difluoromethyl)-1H-pyrazol-4-yl)-2,6-difluorobenzyl)-16,16,16-trifluoro-9-hydroxy-15,15-dimethyl-3,6,13-trioxo-8-(4-((6-(8-((S)-tetrahydrofuran-2-carbonyl)-3,8-diazabicyclo[3.2.1]octan-3-yl)pyridin-3-yl)ethynyl)benzyl)-5-(1,1,1-trifluoro-2-methylpropan-2-yl)-2-oxa-4,7,11,12-tetraazahexadecan-14-yl)carbamate] | 0.13 | 1.03 | 8.30 |  |  | 
3 | COC(=O)N[C@H](C(=O)N[C@@H](Cc1ccc(C#Cc2ccc(N3CC4(C3)CN(C3COC3)C4)nc2)cc1)[C@@H](O)CN(Cc1c(F)cc(-c2ccn(C(F)F)n2)cc1F)NC(=O)[C@@H](NC(=O)OC)C(C)(C)C(F)(F)F)C(C)(C)C(F)(F)F [Example 163, Methyl ((5S,8S,9S,14S)-11-(4-(1-(difluoromethyl)-1H-pyrazol-3-yl)-2,6-difluorobenzyl)-16,16,16-trifluoro-9-hydroxy-15,15-dimethyl-8-(4-((6-(6-(oxetan-3-yl)-2,6-diazaspiro[3.3]heptan-2-yl)pyridin-3-yl)ethynyl)benzyl)-3,6,13-trioxo-5-(1,1,1-trifluoro-2-methylpropan-2-yl)-2-oxa-4,7,11,12-tetraazahexadecan-14-yl)carbamate] |  |  |  | <0.11 | 8.63 | 
4 | COC(=O)N[C@H](C(=O)N[C@@H](Cc1ccc(C#Cc2cnc(N3CCN(C)C(=O)C3)nc2)cc1)[C@@H](O)CN(Cc1c(F)cc(-c2ccn(C(F)F)n2)cc1F)NC(=O)[C@@H](NC(=O)OC)C(C)(C)C(F)(F)F)C(C)(C)C(F)(F)F [Example 159, methyl ((5S,8S,9S,14S)-11-(4-(1-(difluoromethyl)-1H-pyrazol-3-yl)-2,6-difluorobenzyl)-16,16,16-trifluoro-9-hydroxy-15,15-dimethyl-8-(4-((2-(4-methyl-3-oxopiperazin-1-yl)pyrimidin-5-yl)ethynyl)benzyl)-3,6,13-trioxo-5-(1,1,1-trifluoro-2-methylpropan-2-yl)-2-oxa-4,7,11,12-tetraazahexadecan-14-yl)carbamate] |  |  |  | <0.11 | 8.42 | 
5 | COC(=O)N[C@H](C(=O)N[C@@H](Cc1ccc(C#Cc2ccc(N3CC4CCC(C3)N4C3COC3)nc2)cc1)[C@@H](O)CN(Cc1c(F)cc(-c2ccn(CC(C)(C)O)n2)cc1F)NC(=O)[C@@H](NC(=O)OC)C(C)(C)C(F)(F)F)C(C)(C)C(F)(F)F [Example 16, Methyl ((5S,8S,9S,14S)-11-(2,6-difluoro-4-(1-(2-hydroxy-2-methylpropyl)-1H-pyrazol-3-yl)benzyl)-16,16,16-trifluoro-9-hydroxy-15,15-dimethyl-8-(4-((6-(8-(oxetan-3-yl)-3,8-diazabicyclo[3.2.1]octan-3-yl)pyridin-3-yl)ethynyl)benzyl)-3,6,13-trioxo-5-(1,1,1-trifluoro-2-methylpropan-2-yl)-2-oxa-4,7,11,12-tetraazahexadecan-14-yl)carbamate] | <0.11 | 0.45 | 8.33 |  |  | 
6 | COC(=O)N[C@H](C(=O)N[C@@H](Cc1ccc(C#Cc2ccc(N3CC4CCC(C3)N4C3COC3)nc2)cc1)[C@@H](O)CN(Cc1ccc(-c2ccn(C(F)F)n2)cc1)NC(=O)[C@@H](NC(=O)OC)C(C)(C)C(F)(F)F)C(C)(C)C(F)(F)F [Example 158, Methyl ((5S,8S,9S,14S)-11-(4-(1-(difluoromethyl)-1H-pyrazol-3-yl)benzyl)-16,16,16-trifluoro-9-hydroxy-15,15-dimethyl-8-(4-((6-(8-(oxetan-3-yl)-3,8-diazabicyclo[3.2.1]octan-3-yl)pyridin-3-yl)ethynyl)benzyl)-3,6,13-trioxo-5-(1,1,1-trifluoro-2-methylpropan-2-yl)-2-oxa-4,7,11,12-tetraazahexadecan-14-yl)carbamate] | <0.11 | 0.22 | 8.36 |  |  | 
7 | COC(=O)N[C@H](C(=O)N[C@@H](Cc1ccc(C#Cc2cnc(N3C[C@H]4C[C@@H]3CN4C3COC3)nc2)cc1)[C@@H](O)CN(Cc1c(F)cc(-c2ccn(C3CC3)n2)cc1F)NC(=O)[C@@H](NC(=O)OC)C(C)(C)C(F)(F)F)C(C)(C)C(F)(F)F [Example 31, Methyl ((5S,8S,9S,14S)-11-(4-(1-cyclopropyl-1H-pyrazol-3-yl)-2,6-difluorobenzyl)-16,16,16-trifluoro-9-hydroxy-15,15-dimethyl-8-(4-((2-((1R,4R)-5-(oxetan-3-yl)-2,5-diazabicyclo[2.2.1]heptan-2-yl)pyrimidin-5-yl)ethynyl)benzyl)-3,6,13-trioxo-5-(1,1,1-trifluoro-2-methylpropan-2-yl)-2-oxa-4,7,11,12-tetraazahexadecan-14-yl)carbamate] |  |  | 8.51 | <0.11 |  | 0.75
8 | COC(=O)N[C@H](C(=O)N[C@@H](Cc1ccc(C#Cc2ccc(N3C[C@@H]4CN(C5COC5)C[C@@H]4C3)nc2)cc1)[C@@H](O)CN(Cc1c(F)cc(-c2ccn(C(F)F)n2)cc1F)NC(=O)[C@@H](NC(=O)OC)C(C)(C)C(F)(F)F)C(C)(C)C(F)(F)F [Example 165, Methyl ((5S,8S,9S,14S)-11-(4-(1-(difluoromethyl)-1H-pyrazol-3-yl)-2,6-difluorobenzyl)-16,16,16-trifluoro-9-hydroxy-15,15-dimethyl-8-(4-((6-((3aR,6aS)-5-(oxetan-3-yl)hexahydropyrrolo[3,4-c]pyrrol-2(1H)-yl)pyridin-3-yl)ethynyl)benzyl)-3,6,13-trioxo-5-(1,1,1-trifluoro-2-methylpropan-2-yl)-2-oxa-4,7,11,12-tetraazahexadecan-14-yl)carbamate] |  |  | 8.39 | 0.56 |  | 3.2
